# Experiments:
# [1] = tested on: methacholine bronchoconstriction; assay: NO and terbutaline aerosol during methacholine infusion; format: in vivo, Hartley strain guinea pigs; conditions: NO gas before or after inhaled terbutaline
# Procedure: Male Hartley strain guinea pigs (300-440g body wt) were anesthetized with α-chloralose (50 mg/kg) and urethane (500 mg/kg) (Drazen et al., J. Appl. Physiol. 48:613-618, 1980). A tracheostomy was performed, and the animals were intubated with a tubing adaptor (ID 1.65 mm) and ventilated with a small animal ventilator (Harvard Apparatus, a division of Ealing Scientific, Natick, Mass.) at 8 ml/kg and 60 breaths/min. A jugular vein was cannulated for intravenous administration of drugs. The chest was opened by bilateral excision of a portion of the ribs anteriorly so that the lungs were exposed to atmospheric pressure (Shore and Drazen, J. Appl. Physiol. 67:2504-2511, 1989). A positive end expiratory pressure of 3-4 cmH2 O was provided.
# Guinea pigs were then placed inside a plethysmograph (Amdur and Mead, Am. J. Physiol. 192:363-368, 1958), that was connected to a large reservoir containing copper mesh to maintain the plethysmograph isothermal. Plethysmograph pressure was measured with a differential pressure transducer (Celesco, Canoga Park, Calif.); the opposite side of this transducer was connected to a similar reservoir. Pressure at the airway opening was measured from a side tap in the tracheal canula. Transpulmonary pressure was measured with a differential pressure transducer (Celesco) as the difference between airway opening pressure and the pressure inside the plethysmograph. […]
# [2] = tested on: hypoxia-induced pulmonary vasoconstriction; assay: 40 ppm NO in healthy volunteers breathing 12% O2 (hypoxic, vasoconstricted lung); format: in vivo, human
# Procedure: The effects of breathing 40 ppm NO were studied in five awake, healthy human volunteer subjects inhaling various gas mixtures for 10 min periods, with measurements starting at 6 min.
# [3] = tested on: pulmonary hypertension in ARDS; assay: Inhaled NO versus i.v. prostacyclin in adult with ARDS (first subject); format: in vivo, human; conditions: for QVA /QT: sulphur hexafluoride, from 38%
# Procedure: First subject. The patient had suffered for three weeks from adult respiratory distress syndrome (ARDS) due to aspiration pneumonia. There was diffuse pulmonary edema and a large QVA /QT (30%). After 21 days of venovenous extracorporeal membrane oxygenator support (3 liters/min blood flow), the mean PAP was 55 mm Hg.
# The short term effects of inhaled nitric oxide were compared with those of i.v. prostacyclin (PGI2; 5ng/kg/min). Mean pulmonary arterial pressure (PAP), right ventricular ejection fraction (RVEF) and gas exchange variables were evaluated. RVEF was assessed by thermodilution, and gas exchange alterations were analyzed using the multiple inert gas elimination technique (MIGET). MIGET and RVEF date were obtained on two different occasions. Ventilator settings were tidal volume 6 ml/kg, respiratory rate 14/min, Fi O2 0.4-0.48 and 5 cm H2 O of PEEP (positive end expiratory pressure).
# [4] = tested on: lungs; assay: Light microscopy of lungs for morphological changes caused by breathing NO; format: in vivo; conditions: 80 ppm NO for 180 min, three lambs vs control lungs
# Procedure: Lungs from three lambs which had breathed 80 ppm NO for 180 min were studied by light microscopy for evidence of morphological changes caused by breathing NO.
# [5] = tested on: haemoglobin; conditions: Meyer 1988; cited from earlier work
smiles,measurement,setting,value
"[N]=O [NO, nitric oxide]",bronchodilating effects of NO plus terbutaline,[1],additive
same,CO,"[2]; 12% O2 + 40 ppm NO, n = 5",8.37 ± 1.68 L/min
same,CVP,"[2]; 12% O2 + 40 ppm NO, n = 5",5.2 ± 2.6 mmHg
same,MAP,"[2]; 12% O2 + 40 ppm NO, n = 5",86.0 ± 5.7 mmHg
same,PCWP,"[2]; 12% O2 + 40 ppm NO, n = 5",8.5 ± 2.2 mmHg
same,PVR,"[2]; 12% O2 + 40 ppm NO, n = 5",0.62 mmHg · min/l
same,PaCO2,"[2]; 12% O2 + 40 ppm NO, n = 5",34 ± 5 mmHg
same,PaO2,"[2]; 12% O2 + 40 ppm NO, n = 5",45 ± 5 mmHg
same,SaO2,"[2]; 12% O2 + 40 ppm NO, n = 5",83.9 ± 5.7%
same,PAP,"[2]; 12% O2 + 40 ppm NO, n = 5, p < 0.01 vs previous situation",13.7 ± 1.7 mmHg
same,reversal of hypoxia-induced pulmonary vasoconstriction,"[2]; 40 ppm NO, 12% v/v oxygen",reversed completely
same,decrease of mean PAP,[3]; 18 ppm NO in oxygen,12-14 mm Hg
same,mean PAP,[3]; 18 ppm NO in oxygen,38-42 mm Hg
same,reduction of PVR,[3]; 18 ppm NO in oxygen,44%
same,wedge pressure,"[3]; 18 ppm NO in oxygen, remaining constant",~15 mm Hg
same,cardiac output,"[3]; 18 ppm NO in oxygen, unchanged",~7 L/min
same,QVA /QT,[3]; 18 ppm NO,26%
same,QVA /QT,[3]; 36 ppm NO,33%
same,additional vasodilation,[3]; increasing NO concentration to 36 ppm,2-5 mm Hg
same,change of systemic arterial pressure,[3]; inhaled NO,no change of systemic arterial pressure
same,PAP and RVEF,"[3]; inhaled NO and i.v. PGI2, text",lowered PAP and improved RVEF
same,"PaO2, right-to-left shunt and VD /VT","[3]; inhaled NO, in contrast to PGI2",increased PaO2 and decreased right-to-left shunt and VD /VT
same,MAP,"[3]; occasion #1, NO 18 ppm",78 mm Hg
same,PAP,"[3]; occasion #1, NO 18 ppm",42 mm Hg
same,PCWP,"[3]; occasion #1, NO 18 ppm",15 mm Hg
same,PaO2,"[3]; occasion #1, NO 18 ppm",146 torr
same,QA /QT,"[3]; occasion #1, NO 18 ppm",26%
same,VD /VT,"[3]; occasion #1, NO 18 ppm",43%
same,low VD /Q,"[3]; occasion #1, NO 18 ppm",1%
same,MAP,"[3]; occasion #1, NO 36 ppm",75 mm Hg
same,PAP,"[3]; occasion #1, NO 36 ppm",37 mm Hg
same,PCWP,"[3]; occasion #1, NO 36 ppm",15 mm Hg
same,PaO2,"[3]; occasion #1, NO 36 ppm",127 torr
same,QA /QT,"[3]; occasion #1, NO 36 ppm",33%
same,VD /VT,"[3]; occasion #1, NO 36 ppm",40%
same,low VD /Q,"[3]; occasion #1, NO 36 ppm",0%
same,MAP,"[3]; occasion #2, NO 18 ppm",88 mm Hg
same,PAP,"[3]; occasion #2, NO 18 ppm",38 mm Hg
same,PCWP,"[3]; occasion #2, NO 18 ppm",14 mm Hg
same,PaO2,"[3]; occasion #2, NO 18 ppm",127 torr
same,RVEF,"[3]; occasion #2, NO 18 ppm",36%
same,MAP,"[3]; occasion #2, NO 36 ppm",86 mm Hg
same,PAP,"[3]; occasion #2, NO 36 ppm",36 mm Hg
same,PCWP,"[3]; occasion #2, NO 36 ppm",12 mm Hg
same,PaO2,"[3]; occasion #2, NO 36 ppm",113 torr
same,RVEF,"[3]; occasion #2, NO 36 ppm",39%
same,morphological changes of lungs,[4],No significant differences
same,binding to haemoglobin,[5],the most rapidly binding ligand to haemoglobin so far discovered

# Source: patent US5873359A, “Methods and devices for treating pulmonary vasoconstriction and asthma” (The General Hospital Corporation, priority 1994, dated 1999)
